The results in this text go back to US10112926B2 (priority 2014, dated 2018).

Where a name gives a salt, the structure may show the parent alone. Read-outs that look alike come from different tables or passages of the source. Where only a bound is given, the exact number is not on record here.

One experiment deals with PI 3-kinase gamma (Homo sapiens (Human), UniProt P48736).
The target in the next experiment is PI 3-kinase beta (Homo sapiens (Human), UniProt P42338). The conditions noted are these: read-out: Assay B PI3Kβ IC50.
The next experiment concerns the target Vps34 (Homo sapiens (Human), UniProt Q8NEB9). The conditions noted are these: read-out: Assay C VPS34 IC50.
The next experiment concerns the target PI 4-kinase beta (Homo sapiens (Human), UniProt Q9UBF8). The conditions noted are these: read-out: Assay D PI4Kβ IC50.
Experiment [1] concerns the target T1, PI 3-kinase beta (Rat-1 pBABEpuro Myr-HA-hp110 beta cells) (Homo sapiens (Human), UniProt P42338). Nature of the experiment: cell-based. The conditions noted are these: Assay I PI3Kβ IC50.
Description: (§1) Cellular Assays for PI 3-Kinase Alpha (H1), Beta (I1) and Delta (J1): Surefire Format
(§2) The brand name SureFire denotes AlphaScreen assays that are adapted to quantify the phosphorylation of endogenous cellular proteins in cell lysates, by using matched antibody pairs, which consist of an anti-phospho-kinase and an anti-kinase antibody. The assay allows characterization of kinase signaling in cells as well as measurement of kinase inhibitor effects.
(§3) The p-Akt (S473) SureFire assay measures the phosphorylation of endogenous cellular Akt 1/2 at Ser473 in cell lysates. Using Rat-1 cells stably expressing myr-HA-tagged versions of the human PI3Kdelta, PI3Kalpha, or PI3Kbeta p110 catalytic subunit isoforms, the assay was developed as a two-plate protocol in a 384-well format.
(§4) For compound testing, the cells were seeded at a density of 4000 (Rat-1_PI3Kdelta), 7500 (Rat-1_PI3Kalpha), or 6200 (Rat-1_PI3Kbeta) cells in 20 μl complete growth medium into cell culture treated 384-well plates and were grown at 37° C./5% CO2/90% humidity for 24 h. Shortly before compound transfer, the complete medium was removed, 30 μl assay buffer (DMEM high glucose, 1×MEM NEAA, 10 mM HEPES, 2 mM L-glutamine, 0.1% (w/v) BSA) was added and 10 μl of the compound predilutions were transferred to the cells. […]
A further experiment addresses mTOR (Homo sapiens (Human), UniProt P42345). The conditions noted are these: read-out: Assay G mTOR IC50.
In experiment [2] the target is PI 3-kinase gamma (U937 cells, MIP1α-stimulated AKT phosphorylation) (Homo sapiens (Human), UniProt P48736). The conditions noted are these: read-out: Assay K2 PI3Kγ IC50.
A further experiment concerns the target PI 3-kinase alpha (Homo sapiens (Human), UniProt P42336). The conditions noted are these: read-out: Assay A PI3Kα IC50.
Experiment [3] has as its target T2, PI 3-kinase alpha (Rat-1 pBABEpuro Myr-HA-hp110 alpha cells) (Homo sapiens (Human), UniProt P42336). Nature of the experiment: cell-based.
Protocol: (§5) Cellular Assays for PI 3-Kinase Alpha (H2), Beta (I2) and Delta (J2): HTRF (Homogeneous Time Resolved Fluorescence) Format
(§6) All cell lines were cultivated in complete growth medium (DMEM high glucose GlutaMAX™ Pyruvate, 10% (v/v) fetal bovine serum, 0.1 mM MEM NEAA, 25 mM HEPES, puromycin 10 μg/mL, 100 U/ml Penicillin, 100 μg/ml Streptomycin) to 90% confluency at 37° C./5% CO2/90% humidity in a humidified CO2 incubator and were split twice a week.
(§7) Semi-automated preparation of cell lysates: For low (inhibited) controls, 0.9 mM NVP-BGT226-AF-1 in 90% (v/v) DMSO was added to the compound master plate. For compound testing, the cells were seeded at a density of 4000 (Rat-1_PI3Kdelta), 8000 (Rat-1_PI3Kalpha), or 6500 (Rat-1_PI3Kbeta) cells in 30 μl complete growth medium into cell culture treated 384-well plates and were grown at 37° C./5% CO2/90% humidity for 24 h. 10 μl of the compound predilutions were transferred to the cells. After treatment with compound for 1 h, medium was removed and cells were lysed by the addition of 20 μl lysis buffer supplemented with blocking buffer. Detection of p-AKT(Ser473) was performed with the HTRF pAKT (Ser473) assay kit according to the manufacturer's instructions using 16 μl of cell lysate in a total detection volume of 20 μl.
For experiment [4], the target named is T1, PI 3-kinase beta (Rat-1 pBABEpuro Myr-HA-hp110 beta cells). Nature of the experiment: cell-based.
Protocol: as §5, §6, §7
The target in the next experiment is PI 3-kinase delta (Homo sapiens (Human), UniProt O00329). The conditions noted are these: read-out: Assay F PI3Kδ IC50.
For experiment [5], the target named is T2, PI 3-kinase alpha (Rat-1 pBABEpuro Myr-HA-hp110 alpha cells). Nature of the experiment: cell-based. The conditions noted are these: Assay H PI3Kα IC50.
Description: as §1, §2, §3, §4

Chain of PI 3-kinase gamma (P48736 whole entry): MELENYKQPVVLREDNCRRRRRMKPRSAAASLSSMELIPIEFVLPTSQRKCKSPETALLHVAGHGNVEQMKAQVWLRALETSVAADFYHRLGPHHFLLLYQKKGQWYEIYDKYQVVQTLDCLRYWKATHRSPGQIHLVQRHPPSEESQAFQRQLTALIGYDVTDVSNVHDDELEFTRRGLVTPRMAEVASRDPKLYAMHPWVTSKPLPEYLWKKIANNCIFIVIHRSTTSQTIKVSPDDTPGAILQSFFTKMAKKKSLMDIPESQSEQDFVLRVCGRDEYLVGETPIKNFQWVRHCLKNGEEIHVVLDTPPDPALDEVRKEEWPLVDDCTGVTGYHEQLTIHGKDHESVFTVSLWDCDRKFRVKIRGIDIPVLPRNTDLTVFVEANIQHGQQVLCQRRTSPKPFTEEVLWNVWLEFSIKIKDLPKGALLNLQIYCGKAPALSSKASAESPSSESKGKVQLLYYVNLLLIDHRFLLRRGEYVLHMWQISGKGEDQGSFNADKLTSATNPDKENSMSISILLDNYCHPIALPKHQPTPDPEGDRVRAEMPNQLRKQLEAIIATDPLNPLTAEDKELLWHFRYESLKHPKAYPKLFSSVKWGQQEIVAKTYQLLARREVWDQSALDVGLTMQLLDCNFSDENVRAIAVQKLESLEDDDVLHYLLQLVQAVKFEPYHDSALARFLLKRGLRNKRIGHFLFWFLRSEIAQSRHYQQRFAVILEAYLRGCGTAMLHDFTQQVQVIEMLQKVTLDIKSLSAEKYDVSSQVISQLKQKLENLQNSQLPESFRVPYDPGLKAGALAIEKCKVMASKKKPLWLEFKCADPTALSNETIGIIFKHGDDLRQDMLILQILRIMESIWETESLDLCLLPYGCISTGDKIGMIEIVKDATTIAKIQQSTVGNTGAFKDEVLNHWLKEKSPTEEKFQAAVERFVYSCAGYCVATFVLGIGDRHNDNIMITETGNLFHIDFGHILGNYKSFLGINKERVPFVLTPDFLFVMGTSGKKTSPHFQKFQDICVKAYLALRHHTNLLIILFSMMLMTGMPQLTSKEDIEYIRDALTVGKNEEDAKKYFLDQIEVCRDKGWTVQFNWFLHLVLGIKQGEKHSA
Chain of PI 4-kinase beta (Q9UBF8 whole entry): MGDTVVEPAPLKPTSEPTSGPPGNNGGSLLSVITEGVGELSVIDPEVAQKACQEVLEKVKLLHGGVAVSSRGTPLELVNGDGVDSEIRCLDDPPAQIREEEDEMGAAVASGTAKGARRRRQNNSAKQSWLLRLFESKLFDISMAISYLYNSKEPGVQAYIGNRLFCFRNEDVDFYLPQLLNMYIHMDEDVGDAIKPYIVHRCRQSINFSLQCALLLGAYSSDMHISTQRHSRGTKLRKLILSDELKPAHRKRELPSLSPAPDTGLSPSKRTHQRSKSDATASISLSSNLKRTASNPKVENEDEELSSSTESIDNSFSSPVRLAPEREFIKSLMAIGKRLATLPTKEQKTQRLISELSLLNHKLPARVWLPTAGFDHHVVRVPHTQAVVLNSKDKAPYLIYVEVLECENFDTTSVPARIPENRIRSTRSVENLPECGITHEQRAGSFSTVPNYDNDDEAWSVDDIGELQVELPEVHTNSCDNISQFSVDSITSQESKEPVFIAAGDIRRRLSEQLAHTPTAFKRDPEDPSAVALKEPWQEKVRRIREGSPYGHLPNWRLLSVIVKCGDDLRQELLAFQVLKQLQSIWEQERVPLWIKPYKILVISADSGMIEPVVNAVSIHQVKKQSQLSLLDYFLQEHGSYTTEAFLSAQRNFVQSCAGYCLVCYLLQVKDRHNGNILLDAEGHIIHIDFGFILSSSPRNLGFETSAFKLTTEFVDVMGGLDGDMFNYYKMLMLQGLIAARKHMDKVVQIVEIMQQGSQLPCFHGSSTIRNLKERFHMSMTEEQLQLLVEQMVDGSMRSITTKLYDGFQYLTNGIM
Chain of Vps34 (Q8NEB9 whole entry): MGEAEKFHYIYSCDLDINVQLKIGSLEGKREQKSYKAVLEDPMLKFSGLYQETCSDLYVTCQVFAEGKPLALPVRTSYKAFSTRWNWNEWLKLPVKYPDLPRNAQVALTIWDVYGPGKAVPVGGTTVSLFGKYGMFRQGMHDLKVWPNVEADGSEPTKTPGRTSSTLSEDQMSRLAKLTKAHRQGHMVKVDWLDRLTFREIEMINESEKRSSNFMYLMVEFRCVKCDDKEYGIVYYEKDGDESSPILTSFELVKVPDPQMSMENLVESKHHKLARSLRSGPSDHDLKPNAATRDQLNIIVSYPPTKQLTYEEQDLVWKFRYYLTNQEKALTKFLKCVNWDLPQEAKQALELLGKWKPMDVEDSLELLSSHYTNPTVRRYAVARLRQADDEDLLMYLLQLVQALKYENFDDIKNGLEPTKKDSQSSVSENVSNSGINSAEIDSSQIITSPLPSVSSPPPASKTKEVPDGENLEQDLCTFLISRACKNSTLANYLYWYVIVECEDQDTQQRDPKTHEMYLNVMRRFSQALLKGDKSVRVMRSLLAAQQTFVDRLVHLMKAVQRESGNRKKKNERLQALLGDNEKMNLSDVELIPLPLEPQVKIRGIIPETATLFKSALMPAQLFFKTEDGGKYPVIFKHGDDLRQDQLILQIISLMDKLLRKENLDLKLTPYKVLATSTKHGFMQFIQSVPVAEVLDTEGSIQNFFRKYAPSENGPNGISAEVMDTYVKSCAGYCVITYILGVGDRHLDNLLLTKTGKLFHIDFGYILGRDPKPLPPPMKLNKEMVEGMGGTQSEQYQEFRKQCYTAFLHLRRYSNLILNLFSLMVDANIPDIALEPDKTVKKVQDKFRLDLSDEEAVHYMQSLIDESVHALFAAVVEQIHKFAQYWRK
Chain of PI 3-kinase alpha (P42336 whole entry, looked up): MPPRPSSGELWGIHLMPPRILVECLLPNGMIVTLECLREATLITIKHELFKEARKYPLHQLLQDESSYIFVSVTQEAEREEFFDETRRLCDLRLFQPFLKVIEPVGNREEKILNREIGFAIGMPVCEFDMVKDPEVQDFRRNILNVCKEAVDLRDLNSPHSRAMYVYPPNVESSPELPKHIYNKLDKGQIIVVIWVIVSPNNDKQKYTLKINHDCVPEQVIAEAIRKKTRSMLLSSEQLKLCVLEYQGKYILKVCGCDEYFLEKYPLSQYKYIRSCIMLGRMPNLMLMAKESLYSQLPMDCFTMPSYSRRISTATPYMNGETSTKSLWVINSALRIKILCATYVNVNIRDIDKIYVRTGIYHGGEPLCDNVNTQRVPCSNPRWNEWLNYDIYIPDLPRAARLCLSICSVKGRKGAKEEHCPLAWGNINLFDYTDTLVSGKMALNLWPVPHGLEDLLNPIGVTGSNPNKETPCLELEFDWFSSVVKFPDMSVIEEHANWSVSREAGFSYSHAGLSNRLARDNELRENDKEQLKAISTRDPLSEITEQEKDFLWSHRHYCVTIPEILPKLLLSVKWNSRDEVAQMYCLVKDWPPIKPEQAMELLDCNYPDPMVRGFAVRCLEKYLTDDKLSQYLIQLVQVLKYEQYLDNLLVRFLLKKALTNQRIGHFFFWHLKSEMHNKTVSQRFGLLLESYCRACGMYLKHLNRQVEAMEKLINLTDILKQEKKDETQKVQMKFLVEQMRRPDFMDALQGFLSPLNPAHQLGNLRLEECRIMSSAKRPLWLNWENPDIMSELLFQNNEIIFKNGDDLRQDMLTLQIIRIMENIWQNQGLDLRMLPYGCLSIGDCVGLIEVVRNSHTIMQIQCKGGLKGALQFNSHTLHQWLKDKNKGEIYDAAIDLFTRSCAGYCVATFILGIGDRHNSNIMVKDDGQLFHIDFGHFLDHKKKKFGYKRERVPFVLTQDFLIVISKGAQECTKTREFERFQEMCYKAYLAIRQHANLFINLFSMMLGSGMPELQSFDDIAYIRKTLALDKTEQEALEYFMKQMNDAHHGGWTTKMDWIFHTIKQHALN
Chain of PI 3-kinase alpha (P27986 whole entry partner, looked up): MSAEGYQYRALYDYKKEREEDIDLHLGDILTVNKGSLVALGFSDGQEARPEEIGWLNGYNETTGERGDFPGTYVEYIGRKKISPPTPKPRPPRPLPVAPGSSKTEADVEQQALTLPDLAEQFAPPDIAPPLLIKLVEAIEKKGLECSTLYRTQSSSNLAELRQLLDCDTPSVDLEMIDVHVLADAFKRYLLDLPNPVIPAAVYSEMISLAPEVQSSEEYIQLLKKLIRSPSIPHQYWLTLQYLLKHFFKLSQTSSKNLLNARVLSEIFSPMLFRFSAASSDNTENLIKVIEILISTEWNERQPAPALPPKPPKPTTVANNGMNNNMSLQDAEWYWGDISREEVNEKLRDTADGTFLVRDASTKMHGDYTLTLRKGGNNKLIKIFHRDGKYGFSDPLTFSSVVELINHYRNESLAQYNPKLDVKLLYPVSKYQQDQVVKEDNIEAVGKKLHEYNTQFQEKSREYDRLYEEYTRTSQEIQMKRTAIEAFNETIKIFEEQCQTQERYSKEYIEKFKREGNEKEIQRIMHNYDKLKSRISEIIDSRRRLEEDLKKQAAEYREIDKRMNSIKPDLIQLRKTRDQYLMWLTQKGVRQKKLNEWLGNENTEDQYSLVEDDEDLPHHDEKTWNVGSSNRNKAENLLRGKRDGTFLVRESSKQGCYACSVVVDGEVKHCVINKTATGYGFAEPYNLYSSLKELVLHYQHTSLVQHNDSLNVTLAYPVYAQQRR
Chain of PI 3-kinase gamma (U937 cells, MIP1α-stimulated AKT phosphorylation) (P48736 whole entry): as the sequence (P48736 whole entry) above

Turning to `Cc1cc(-c2cnc(N)c(-c3nc(C)no3)c2)cc(S(=O)(=O)NCC(C)(C)O)c1` [3-(6-amino-5-(3-methyl-1,2,4-oxadiazol-5-yl)pyridin-3-yl)-N-(2-hydroxy-2-methylpropyl)-5-methylbenzenesulfonamide], the “activity in assay E” value on PI 3-kinase gamma is “inactive”.
Same read-out and setting: the value for `Cc1noc(-c2cc(-c3cc(C(F)(F)F)cc(S(=O)(=O)NCC(C)(C)O)c3)cnc2N)n1` [3-(6-amino-5-(3-methyl-1,2,4-oxadiazol-5-yl)pyridin-3-yl)-N-(2-hydroxy-2-methylpropyl)-5-(trifluoromethyl)benzenesulfonamide] was “inactive”.
Broadly, the IC50 is the midpoint of a concentration-inhibition curve. Turning to `Cc1ccc(S(=O)(=O)N[C@H]2CC[C@H](O)CC2)cc1-c1cnc(N)c(-c2nc(CC(F)(F)F)no2)c1` [Example 78, trans-3-(6-Amino-5-(3-(2,2,2-trifluoroethyl)-1,2,4-oxadiazol-5-yl)pyridin-3-yl)-N-((1r,4r)-4-hydroxycyclohexyl)-4-methylbenzenesulfonamide], the IC50 is 2.5 µM at PI 3-kinase beta, more than 10 µM on Vps34, 0.49 µM at PI 4-kinase beta and more than 10 µM in [1].
As for `Cc1cc(-c2cc(-c3cc(S(=O)(=O)NCC4(O)CCC4)ccc3C)cnc2N)on1` [Example 37.35, 3-(6-Amino-5-(3-methylisoxazol-5-yl)pyridin-3-yl)-N-((1-hydroxycyclobutyl)methyl)-4-methylbenzenesulfonamide], the IC50 is more than 10 µM at Vps34, more than 10 µM at mTOR and 0.101 µM in experiment [2].
Regarding `Cc1noc(-c2cc(-c3cc(S(=O)(=O)NCC(C)(C)O)ccc3C(F)(F)F)cnc2N)n1` [3-(6-amino-5-(3-methyl-1,2,4-oxadiazol-5-yl)pyridin-3-yl)-N-(2-hydroxy-2-methylpropyl)-4-(trifluoromethyl)benzenesulfonamide], the “activity in assay E” value on PI 3-kinase gamma is “inactive”.
For the compound `Cc1cc(-c2cc(-c3cc(S(=O)(=O)N4CC(N(C)C)C4)ccc3C)cnc2N)on1` [Example 19.19, 5-(5-((3-(dimethylamino)azetidin-1-yl)sulfonyl)-2-methylphenyl)-3-(3-methylisoxazol-5-yl)pyridin-2-amine acetic acid salt], the IC50 was 3.1 µM at PI 3-kinase alpha, more than 10 µM on Vps34, 8.5 µM at PI 4-kinase beta and more than 10 µM in [3].
For the compound `Cc1cc(-c2cc(-c3cc(S(=O)(=O)N4C[C@H](C)[C@@H](O)C4)ccc3C)cnc2N)on1` (relative stereo) [Example 101.3, trans-1-((3-(6-amino-5-(3-methylisoxazol-5-yl)pyridin-3-yl)-4-methylphenyl)sulfonyl)-4-methylpyrrolidin-3-ol], the IC50 at PI 3-kinase beta was 5.1 µM; at Vps34 it was more than 10 µM; on PI 4-kinase beta, 3.6 µM; in experiment [4], more than 10 µM.
As to `Cc1ncc(-c2cc(-c3cc(S(=O)(=O)NCC4(O)COC4)ccc3C)cnc2N)s1` [Example 83.3, 3-(6-amino-5-(2-methylthiazol-5-yl)pyridin-3-yl)-N-((3-hydroxyoxetan-3-yl)methyl)-4-methylbenzenesulfonamide], the IC50 turned out to be 0.57 µM at PI 3-kinase alpha; 3 µM at PI 3-kinase beta; 9.7 µM at Vps34; 1.7 µM at PI 4-kinase beta; 0.9 µM at PI 3-kinase delta.
As for `Cc1ncc(-c2cc(-c3cc(S(=O)(=O)N4CC(CO)C4)ccc3C)cnc2N)s1` [Example 83.1, (1-((3-(6-Amino-5-(2-methylthiazol-5-yl)pyridin-3-yl)-4-methylphenyl)sulfonyl)azetidin-3-yl)methanol], the IC50 on PI 3-kinase alpha is 0.4 µM; at PI 3-kinase beta it was 2.5 µM; at PI 3-kinase delta, 1.3 µM.
For the compound `Cc1noc(-c2cc(-c3cc(S(=O)(=O)NCC(C)(C)O)c(C)cc3C)cnc2N)n1` [Example 100], the IC50 is 0.26 µM on PI 3-kinase alpha; 2.25 µM on PI 3-kinase beta; more than 10 µM at Vps34; 4.25 µM on PI 4-kinase beta; 4.14 µM in [5]; more than 10 µM in experiment [1].
As to `Cc1noc(-c2cc(-c3cc(S(=O)(=O)N[C@@H]4CCNC(=O)C4)ccc3C)cnc2N)n1` [Example 37.25, (R)-3-(6-Amino-5-(3-methyl-1,2,4-oxadiazol-5-yl)pyridin-3-yl)-4-methyl-N-(2-oxopiperidin-4-yl)benzenesulfonamide], the IC50 on PI 3-kinase alpha is 3.8 µM; on PI 3-kinase beta, more than 10 µM; on Vps34 it was more than 10 µM; on PI 4-kinase beta, more than 10 µM; on mTOR, more than 10 µM.
